Columns and labels:
[1] = system: A2780cis (cisplatin-resistant clone of A2780); experiment: cells; settings: for IC50: A2780cis, 24 h; for fold resistance (FR): ratio IC50 A2780cis / IC50 A2780
Description: (§1) Authenticated cHL-derived cell lines L-1236, L-428, KM-H2, and HDLM-2 were from DSMZ (Braunschweig, Germany). Doxorubicin-resistant KM-H2dx and HDLM-2dx cells were developed in our laboratory by continuous exposure of KM-H2 and HDLM-2 cells to 35 nM doxorubicin. HDLM-2dx and KM-H2dx cells were maintained in doxorubicin and cultured without the drug 72 h before use. All cell lines are here collectively called “cHL cells”. Authenticated OvCa cell lines A2780 and A2780cis were from Sigma-Aldrich, (Milano, Italy) SKOV3 (HTB-77) were obtained from the American Type Culture Collection (ATCC), OVCAR5 (NIH) were provided by Dr. Baldassarre (CRO, Aviano, Italy). A2780cis cells were maintained in 1 µM cisplatin and cultured without the drug for 72 h before use. […] Peripheral blood mononuclear cells (PBMCs) were obtained from healthy donor blood by density gradient centrifugation on a Ficoll-Paque PLUS (GE Healthcare); they were washed twice with PBS before use and cultured in RPMI-1640 medium containing 10% fetal bovine serum. Human dermal fibroblasts, a generous gift of Dr. Capuano [44], were maintained in Dulbecco′s Modified Eagle′s Medium (DMEM) high glucose (Gibco) plus 10% fetal bovine serum.
(§2) OvCa cells and fibroblasts were seeded in 96 well (10.0 × 10^3) the day before treatment to allow cell adherence. […] Half maximal inhibitory concentrations (IC50) were calculated using CalcuSyn software, v2.1 (Biosoft, Ferguson, MO, USA). Fold resistance (FR) was calculated as the ratio of the IC50 of drug-resistant cell line (KM-H2dx, HDLM-2dx, and A2780cis) to that of the respective parental cell line (KM-H2, HDLM-2, and A2780).

[2] = system: HDLM-2dx (doxorubicin-resistant clone of HDLM-2); experiment: cells; settings: for fold resistance (FR): ratio IC50 HDLM-2dx / IC50 HDLM-2
Description: as §1, §2

[3] = system: KM-H2dx (doxorubicin-resistant clone of KM-H2); experiment: cells; settings: for fold resistance (FR): ratio IC50 KM-H2dx / IC50 KM-H2
Description: as §1, §2

[4] = system: L-1236; experiment: cells; settings: L-1236, 24 h
Description: as §2

[5] = system: SKOV3; experiment: cells
Description: as §2

[6] = system: OVCAR5; experiment: cells
Description: as §2

[7] = system: L-428; experiment: cells; settings: L-428, 24 h
Description: as §2

[8] = system: A2780; experiment: cells; settings: A2780, 24 h
Description: as §2

[9] = system: KM-H2; experiment: cells; settings: KM-H2, 24 h
Description: as §2

[10] = system: HDLM-2; experiment: cells; settings: HDLM-2, 24 h
Description: as §2

[11] = system: A2780, A2780cis, and KM-H2 cells; assay type: cell-based, human; settings: 24 h
Description: Supplemental Figure S6. Cytotoxic activity of K6-FITC. A2780, A2780cis, and KM-H2 cells were cultured with K6-FITC. After 24 hours cell viability was evaluated by MTT assay for A2780 and A2780cis and by MTS assay for KM-H2 cells. Results are mean and SD of three independent experiments. IC50 was calculated using Calcusyn software.
(1 picture or pasted object on this page, not shown here)

[12] = system: A2780 and HDLM-2 vs PBMCs and fibroblasts; experiment: K6-FITC uptake by flow cytometry, tumor vs normal cells; assay type: cell-based, human; settings: 0.25–2.5 µM K6-FITC, 5, 30 and 120 min, three independent experiments
Description: For flow cytometry, cells were treated with different concentrations of K6-FITC (0–2.5 µM). After 5, 30 and 120 min of incubation, cells were washed and evaluated for green fluorescence intensity by flow cytometry on a BD FACSCanto II flow cytometer. Annexin-V assay: cells were treated with peptaibols for 24 h, then stained for 15 min with FITC AnnexinV (Thermo Fisher Scientific, Monza, Italy) and 7-Amino-Actinomycin D (7AAD) (BD Pharmingen, Milano, Italy) and analyzed using flow cytometry. Data were analyzed using BD FACSDiva v.8.0.1 software (BD Biosciences, Milano, Italy).

[13] = system: A2780 and A2780cis; experiment: K6-FITC uptake, time-lapse confocal microscopy with PI; assay type: cell-based, human; settings: 30 µM K6-FITC, 37 °C
Description: (§3) The uptake of peptaibols was evaluated by confocal microscopy and flow cytometry using the fluorescent K6-FITC analog. For confocal microscopy, cells were plated onto glass bottom culture dishes and treated with K6-FITC (30 µM) and propidium iodide (PI) 2 µg/mL. K6-FITC uptake was monitored using confocal microscope in time-lapse xyzt acquisition mode (Leica DM IRE2) keeping cells at 37 °C and 5% CO2. To trace peptaibol penetration in spheroids, single four-day-old SKOV3-MCTs were incubated with K6-FITC (20 µM) and images acquired using confocal microscopy.

[14] = system: KM-H2 cells; experiment: as above; assay type: cell-based, human; settings: KM-H2, 30 µM K6-FITC, PI 2 µg/mL, 60 min of incubation, 37 °C
Description: as §3

[15] = system: SKOV3-MCTSs; experiment: K6-FITC penetration in spheroids, confocal microscopy; assay type: cell-based, human; settings: 20 µM K6-FITC, four-day-old single spheroids, confocal time-lapse
Description: as §3

[16] = system: human peripheral blood mononuclear cells (PBMCs); experiment: Cytotoxicity in healthy cells, MTS assay; settings: 24 h, mean (SD)
Description: (§4) Authenticated cHL-derived cell lines L-1236, L-428, KM-H2, and HDLM-2 were from DSMZ (Braunschweig, Germany). Doxorubicin-resistant KM-H2dx and HDLM-2dx cells were developed in our laboratory by continuous exposure of KM-H2 and HDLM-2 cells to 35 nM doxorubicin. HDLM-2dx and KM-H2dx cells were maintained in doxorubicin and cultured without the drug 72 h before use. All cell lines are here collectively called “cHL cells”. Authenticated OvCa cell lines A2780 and A2780cis were from Sigma-Aldrich, (Milano, Italy) SKOV3 (HTB-77) were obtained from the American Type Culture Collection (ATCC), OVCAR5 (NIH) were provided by Dr. Baldassarre (CRO, Aviano, Italy). A2780cis cells were maintained in 1 µM cisplatin and cultured without the drug for 72 h before use. […]
as §2

[17] = system: human fibroblasts; experiment: Cytotoxicity in healthy cells, MTT assay; settings: healthy human dermal fibroblasts, 24 h, mean (SD)
Description: as §4, §2

[18] = system: SKOV3-MCTSs; experiment: SKOV3 spheroid cell viability, PrestoBlue; assay type: cell-based, human; settings: 24 h treatment
Source text: Multiple SKOV3-MCTSs were obtained by seeding 10.0 × 10^3 cells in non-adherent conditions.

[19] = system: SKOV3-MCTSs; experiment: SKOV3 spheroid (MCTS) volume; assay type: cell-based, human; settings: 25 µM, 3 days of treatment, four-day old single spheroids
Description: To obtain the 3 dimensional (3D) SKOV3-MCTSs, cells were cultured in non-adherent conditions on plates coated twice with 20 mg/mL of poly(2-hydroxyethyl methacrylate) (poly-HEMA; Sigma) in 95% ethanol. Single spheroids with defined size were generated by culturing 1.0 × 10^3 SKOV3 cells onto poly-HEMA-coated 96-well for 4 days. Then, single SKOV3-MCTSs were treated with increasing concentrations of peptaibols (0–25 µM). SKOV3-MCTSs size was measured and photographed up to 72 h after treatment initiation using an inverted microscope (Eclipse TS/100, Nikon) with the DS Camera Control Unit DS-L2 photo micrographic system. SKOV3-MCTSs volumes were calculated using the formula: (width^2 × length × 3.14)/6 [47].

N.N.[Cl][Pt][Cl] [Cisplatin, cisplatin]
IC50 ([1]; MTT, mean (SD)): 10.4 µM
fold resistance (FR) [1]: 8
IC50 ([2]; HDLM-2dx, 24 h, MTS, mean (SD)): 4 µM
fold resistance (FR) [2]: 3.11
IC50 ([3]; KM-H2dx, 24 h, MTS, mean (SD)): 1.2 µM
fold resistance (FR) [3]: 2.6
IC50 ([4]; MTS, mean (SD)): 0.8 µM
IC50 ([5]; SKOV3, 24 h, MTT, mean (SD)): 7.7 µM
IC50 ([6]; OVCAR5, 24 h, MTT, mean (SD)): 7.7 µM
IC50 ([7]; MTS, mean (SD)): 0.5 µM
IC50 ([8]; MTT, mean (SD)): 1.3 µM
IC50 ([9]; MTS, mean (SD)): 0.5 µM
IC50 ([10]; MTS, mean (SD)): 1.3 µM

COc1cccc2c1C(=O)c1c(O)c3c(c(O)c1C2=O)C[C@@](O)(C(=O)CO)C[C@@H]3O[C@H]1C[C@H](N)[C@H](O)[C@H](C)O1 [Doxorubicin]
IC50 ([1]; Homo sapiens): 0.116 µM
fold resistance (FR) [1]: 5.6
IC50 ([2]; Homo sapiens, HDLM-2, 24 h): 0.368 µM
fold resistance (FR) [2]: 9
IC50 ([3]; Homo sapiens, KM-H2, 24 h): 0.202 µM
fold resistance (FR) [3]: 9
IC50 ([4]; Homo sapiens): 0.0464 µM
IC50 ([5]; Homo sapiens, SK-OV-3, 24 h): 0.13 µM
IC50 ([6]; Homo sapiens, OVCAR-5, 24 h): 0.47 µM
IC50 ([7]; Homo sapiens): 0.0184 µM
IC50 ([8]; Homo sapiens): 0.0204 µM
IC50 ([9]; Homo sapiens): 0.0221 µM
IC50 ([10]; Homo sapiens): 0.0405 µM

CCCCCCCC(=O)NC(C)(C)C(=O)NCC(=O)N[C@@H](CC(C)C)C(=O)NC(C)(C)C(=O)NCC(=O)N[C@@H](CCCCN)C(=O)N[C@@H](CC(C)C)C(=O)NC(C)(C)C(=O)NCC(=O)N[C@H](C(=O)N[C@@H](CC(C)C)C(=O)NCCNC(=S)Nc1ccc2c(c1)C(=O)OC21c2ccc(O)cc2Oc2cc(O)ccc21)[C@@H](C)CC [K6-FITC]
IC50 [11]: ~30 µM
uptake (mean fluorescence intensity) by tumor cells compared with normal cells [12]: in a higher quantity and in a faster way
uptake [13]: rapidly taken up in both cell lines
uptake and PI staining [14]: all cells were double stained
IC50 ([1]; MTT, mean (SD)): 29 µM
IC50 ([8]; MTT, mean (SD)): 24.5 µM
IC50 ([9]; MTS, mean (SD)): 30 µM
penetration into SKOV3-MCTSs [15]: rapidly and deeply penetrated

CCCCCCCC(=O)NC(C)(C)C(=O)NCC(=O)N[C@@H](CC(C)C)C(=O)NC(C)(C)C(=O)NCC(=O)N[C@@H](CCCCN)C(=O)N[C@@H](CC(C)C)C(=O)NC(C)(C)C(=O)NCC(=O)N[C@H](C(=O)N[C@H](CO)CC(C)C)[C@@H](C)CC [K6-Lol]
IC50 [16]: 7.1 (0.4) µM
IC50 [17]: 15.0 (1.4) µM
IC50 ([1]; MTT, mean (SD)): 9.1 µM
IC50 ([2]; HDLM-2dx, 24 h, MTS, mean (SD)): 11.9 µM
fold resistance (FR) [2]: ~1
IC50 ([3]; KM-H2dx, 24 h, MTS, mean (SD)): 7.2 µM
fold resistance (FR) [3]: ~1
IC50 ([4]; MTS, mean (SD)): 11.7 µM
IC50 ([5]; SKOV3, 24 h, MTT, mean (SD)): 8.4 µM
IC50 ([6]; OVCAR5, 24 h, MTT, mean (SD)): 7.5 µM
IC50 ([7]; MTS, mean (SD)): 8.9 µM
IC50 ([8]; MTT, mean (SD)): 7.9 µM
IC50 ([9]; MTS, mean (SD)): 7.5 µM
IC50 ([10]; MTS, mean (SD)): 12.6 µM
SKOV3-MCTS cell viability [18]: dose-dependent decrease
SKOV3-MCTS volume [19]: completely eliminated them

— publication PMC8394784, “Analogs of a Natural Peptaibol Exert Anticancer Activity in Both Cisplatin- and Doxorubicin-Resistant Cells and in Multicellular Tumor Spheroids” (International Journal of Molecular Sciences, 2021)
